From patent US20240066057A1, “METHOD FOR TREATING PAIN USING VANADIUM COMPOUNDS” (HUNAN FANGSHENGTAI MEDICAL TECHNOLOGY CO., LTD, priority 2020, published 2024)

What was measured:
[1] = system: Kunming mice with CFA-induced inflammation; test: Von Frey test (50% paw withdrawal threshold) in CFA-induced inflammatory pain mouse model; assay type: in vivo
Experimental: 10 μL of complete Freund's adjuvant (CFA) was injected into the left hind foot of mice (♂ Kunming mice, 22 g to 40 g) to induce inflammation. 24 hours after the injection, a Von Frey test was performed to determine a pain threshold. That is, under the guidance of Dixon's Up-Down method, Von Frey fibers were used to induce the mechanical paw withdrawal of the mice, and data were collected and calculated to obtain their 50% paw withdrawal thresholds (paw withdrawal threshold or PWT for short, i.e. pain threshold). Mice were then divided into different groups, including a normal saline group, a positive control group, and a drug group, which were intraperitoneally injected with normal saline, an aspirin (acetylsalicylic acid, or ASA) solution and a solution of compound for testing respectively. A Von Frey test was then performed to monitor changes in pain threshold.
Mice were divided into three groups: a blank control group, an aspirin (ASA) group, and a drug group. In blank control group, the mice were given normal saline, deionized water or deionized water containing ≤5% DMSO at the same volume as that in the drug group. In ASA group, the mice were given the known analgesic drug ASA as the positive control for tested compounds. In drug group, the mice were given compounds for testing accordingly. Due attention was paid to observe whether the pain threshold rose, the period during which the rise was maintained and the magnitude of the rise, after the injection of a tested compound solution.

[2] = system: Kunming mice with CFA-induced inflammation; test: Effective concentration and plateau experiment of vanadium compounds, tail vein injection, mouse pain model; assay type: in vivo; settings: for Duration / Maximum analgesic intensity (mean) / Onset time: 6 samples
[3] = Example 3, intraperitoneal injection, A1 0.97 mg/kg (atomic mass of vanadium), S about 250 mg/kg
[4] = intraperitoneal injection, doses as in Examples 3-9
[5] = intraperitoneal injection, doses as in Examples 3-9, most of the time after onset
[6] = Plateau experiment, dose (vanadium) A5/G3 0.25, A1/G1/H1 0.49, A4/G2/H2 0.97, H3 1.9 mg/kg, listed as A1
[7] = Plateau experiment, dose (vanadium) A5/G3 0.25, A1/G1/H1 0.49, A4/G2/H2 0.97, H3 1.9 mg/kg, listed as A4
[8] = Plateau experiment, dose (vanadium) A5/G3 0.25, A1/G1/H1 0.49, A4/G2/H2 0.97, H3 1.9 mg/kg, listed as A5
[9] = Effective concentration table, 8.2 × 10^−4 mg/kg
[10] = Plateau experiment, dose (vanadium) A5/G3 0.25, A1/G1/H1 0.49, A4/G2/H2 0.97, H3 1.9 mg/kg, listed as G2
[11] = Plateau experiment, dose (vanadium) A5/G3 0.25, A1/G1/H1 0.49, A4/G2/H2 0.97, H3 1.9 mg/kg, listed as G3
[12] = Example 11 (BMOV), intraperitoneal injection, H1 about 0.97 mg/kg (atomic mass of vanadium)
[13] = Plateau experiment, dose (vanadium) A5/G3 0.25, A1/G1/H1 0.49, A4/G2/H2 0.97, H3 1.9 mg/kg, listed as H1
[14] = Plateau experiment, dose (vanadium) A5/G3 0.25, A1/G1/H1 0.49, A4/G2/H2 0.97, H3 1.9 mg/kg, listed as H2
[15] = Plateau experiment, dose (vanadium) A5/G3 0.25, A1/G1/H1 0.49, A4/G2/H2 0.97, H3 1.9 mg/kg, 1.9 mg/kg
[16] = Example 12, intraperitoneal injection, J about 0.97 mg/kg (atomic mass of vanadium)
[17] = Example 14, intraperitoneal injection, L about 0.97 mg/kg (atomic mass of vanadium)
[18] = Example 15, intraperitoneal injection, M about 0.97 mg/kg (atomic mass of vanadium)
[19] = Example 13, intraperitoneal injection, K about 0.97 mg/kg (atomic mass of vanadium)
[20] = Example 5, intraperitoneal injection, C 1.9 mg/kg (atomic mass of vanadium), S about 250 mg/kg
[21] = intraperitoneal injection, conclusions of Examples 3-9
[22] = intraperitoneal injection, versus aspirin control group
[23] = Example 6, intraperitoneal injection, D 1.9 mg/kg, S about 250 mg/kg, listed as D
[24] = Example 11 (BEOV), intraperitoneal injection, I about 0.97 mg/kg (atomic mass of vanadium)

[Na+].[Na+].[Na+].[O]=[V]([O-])([O-])[O-] [Solution A1, Sodium orthovanadate]
Duration [1, 3]: >60 min | Onset time [1, 3]: 30 to 45 after injection min | Duration ([1]; Example 4, intraperitoneal injection, A1 0.97, A2 0.19, A3 0.097 mg/kg (atomic mass of vanadium)): >60 min | Onset time ([1]; Example 4, intraperitoneal injection, A1 0.97, A2 0.19, A3 0.097 mg/kg (atomic mass of vanadium), listed as A1): 30 to 45 after injection min | Time after injection at which the pain threshold returned to the baseline value [1, 4]: > 90 min | Pain thresholds / analgesic intensity compared with the S (ASA, aspirin) group [1, 5]: generally higher than those of the mice in the S group | Duration [2, 6]: >60 min | Maximum analgesic intensity (mean) [2, 6]: ~0.55 g

[Na+].[Na+].[Na+].[O]=[V]([O-])([O-])[O-] [Solution A2, Sodium orthovanadate]
Onset time ([1]; Example 4, intraperitoneal injection, A1 0.97, A2 0.19, A3 0.097 mg/kg (atomic mass of vanadium), listed as A2): 30 to 45 after injection min

[Na+].[Na+].[Na+].[O]=[V]([O-])([O-])[O-] [Solution A3, Sodium orthovanadate]
Onset time ([1]; Example 4, intraperitoneal injection, A1 0.97, A2 0.19, A3 0.097 mg/kg (atomic mass of vanadium), 0.097 mg/kg): 30 to 45 after injection min

[Na+].[Na+].[Na+].[O]=[V]([O-])([O-])[O-] [Solution A4, Sodium orthovanadate]
Duration [2, 7]: <60 min | Maximum analgesic intensity (mean) [2, 7]: ~0.30 g

[Na+].[Na+].[Na+].[O]=[V]([O-])([O-])[O-] [Solution A5, Sodium orthovanadate]
Duration [2, 8]: >60 min | Maximum analgesic intensity (mean) [2, 8]: ~0.45 g

[Na+].[Na+].[Na+].[O]=[V]([O-])([O-])[O-] [Solution A6, Sodium orthovanadate]
Duration [2, 9]: <60 min | Onset time [2, 9]: 0 to 15 min

O=S(=O)([O-])[O-].[O]=[V+2] [Solution G2, Vanadyl sulfate]
Duration [2, 10]: no obvious difference | Maximum analgesic intensity (mean) [2, 10]: ~0.49 g

O=S(=O)([O-])[O-].[O]=[V+2] [Solution G3, Vanadyl sulfate]
Duration [2, 11]: >60 min | Maximum analgesic intensity (mean) [2, 11]: ~0.46 g

O=S(=O)([O-])[O-].[O]=[V+2] [Solution G4, Vanadyl sulfate]
Duration [2, 9]: <60 min | Onset time [2, 9]: 0 to 15 min

O=S(=O)([O-])[O-].[O]=[V+2] [Solution G, Vanadyl sulfate]
Minimum effective dose ([2]; mice): about 1.0×10^−3 mg/kg | Blood concentration in mice equivalent to the plateau dose ([2]; plateau dose 0.49 mg/kg): 140 µM

Cc1occc(=O)c1[O-].Cc1occc(=O)c1[O-].[O]=[V+2] [Solution H1, bis(maltolato)oxovanadium (IV)]
Duration [1, 12]: >60 min | Onset time [1, 12]: 0 to 15 after injection min | Duration [2, 13]: ≤60 min | Maximum analgesic intensity (mean) [2, 13]: 0.33 g

Cc1occc(=O)c1[O-].Cc1occc(=O)c1[O-].[O]=[V+2] [Solution H2, bis(maltolato)oxovanadium (IV)]
Duration [2, 14]: >60 min | Maximum analgesic intensity (mean) [2, 14]: 0.54 g

Cc1occc(=O)c1[O-].Cc1occc(=O)c1[O-].[O]=[V+2] [Solution H3, bis(maltolato)oxovanadium (IV)]
Duration [2, 15]: ≤60 min | Maximum analgesic intensity (mean) [2, 15]: 0.48 g

Cc1occc(=O)c1[O-].Cc1occc(=O)c1[O-].[O]=[V+2] [Solution H, bis(maltolato)oxovanadium (IV)]
Plateau dose ([2]; mice, based on vanadium): ≥ 0.97 mg/kg

[O]=[V-2]12([O]C3=COC(CO)=CC3=[O+]1)[O]C1=COC(CO)=CC1=[O+]2 [Solution J, bis(kojato)oxovanadium (IV)]
Duration [1, 16]: >60 min | Onset time [1, 16]: 15 to 30 after injection min

O=C([O-])C(=O)[O-].[O]=[V+2] [Solution L, Vanadyl oxalate]
Duration [1, 17]: >60 min | Onset time [1, 17]: 15 to 30 after injection min

O=C(O)c1ccccn1.O=C(O)c1ccccn1.[O]=[V] [Solution M, Bis(picolinato)oxovanadium (IV)]
Duration [1, 18]: >60 min | Onset time [1, 18]: 15 to 30 after injection min

Bis(acetylacetonato)oxovanadium (IV) [Solution K]
Duration [1, 19]: >60 min | Onset time [1, 19]: 15 to 30 after injection min

Cis-bis(maltolato)methoxyoxovanadium (V) [Solution C]
Duration [1, 20]: about 60 min | Onset time [1, 20]: 15 to 30 after injection min | Analgesic effect [1, 21]: has an analgesic effect | Time after injection at which the pain threshold returned to the baseline value [1, 4]: 90 min | Pain thresholds / analgesic intensity compared with the S (ASA, aspirin) group [1, 5]: comparable to those of the mice, boosted by the solution S, in the S group | Effective duration compared with aspirin (ASA) [1, 22]: longer than that of aspirin

Sodium metavanadate [Solution D]
Duration [1, 23]: >60 min | Onset time [1, 23]: 0 to 15 after injection min | Duration ([1]; Example 6, intraperitoneal injection, D 1.9 mg/kg, S about 250 mg/kg, listed as metavanadate): > 60 min | Analgesic effect [1, 21]: has an analgesic effect | Time after injection at which the pain threshold returned to the baseline value [1, 4]: ~90 min | Pain thresholds / analgesic intensity compared with the S (ASA, aspirin) group [1, 5]: greater than or comparable to those of the mice, boosted by the solution S, in the S group | Effective duration compared with aspirin (ASA) [1, 22]: longer than that of aspirin

bis(ethylmaltolato)oxovanadium (IV) [Solution I]
Duration [1, 24]: >60 min | Onset time [1, 24]: 15 to 30 after injection min

potassium dioxo(citrato)vanadate (V) [Solution F]
Duration ([1]; mouse, in vivo): >60 min | Onset time ([1]; mouse, in vivo): 15 to 30 after injection min | Analgesic effect ([1]; mouse, in vivo, ip): has an analgesic effect | Effective duration compared with aspirin (ASA) ([1]; mouse, in vivo, ip): longer than that of aspirin | Pain thresholds / analgesic intensity compared with the S (ASA, aspirin) group ([1]; mouse, in vivo, ip): higher than those of the mice, boosted by the solution S, in the S group | Time after injection at which the pain threshold returned to the baseline value ([1]; mouse, in vivo, ip): > 90 min
